{"source": "patent US4001325A", "about": "“α-Chloroacetanilide selective herbicides” (Diamond Shamrock Corporation, priority 1973, dated 1977)", "key": {"[1]": {"test_system": "broadleaf species: pigweed, velvetleaf, morningglory", "assay": "Greenhouse preemergence herbicide test, broadleaves", "type": "in vivo", "conditions": "two weeks after treatment, 20160 min", "description": "(§1) To illustrate the preemergence herbicidal efficiency of the alkyl-substituted 2-chloro-N-propargylacetanilides of this invention, test formulations are prepared of each compound by mixing 20 ml of an acetone solution containing 0.125 g of chemical with 20 ml of water containing 0.01 g of Triton X-155 surfactant. The resultant formulations contain 3125 ppm of test compound, 50% by volume of acetone and 0.025% by weight of surfactant. Appropriate lower concentrations are obtained by diluting this formulation with surfactant-acetone solution so that the concentration of adjuvants is maintained at the original levels.\n(§2) Seeds of three broadleaf and three grass species are planted in soil contained in 10 inch × 8 inch × 3 inch aluminum pans filled with 1.5 inches of composted soil. The broadleaf species are pigweed (Amaranthus retroflexus), velvetleaf (Abutilon theophrasti), and morningglory (Ipomea coccinea); the grasses are red millet (Panicum milliacem), green foxtail (Setaria viridis) and Japanese millet (Echinochloa frumentacea).\n(§3) The seeded pans are sprayed so that the soil surface is uniformly covered with dilutions of the stock formulation providing dosage rates of the test compounds as shown in the following table.\n(§4) Two weeks after treatment, percent control (plant kill) at each dosage rate is estimated with results as follows: […]"}, "[2]": {"test_system": "grass species: red millet, green foxtail, Japanese millet", "assay": "Greenhouse preemergence herbicide test, grasses", "type": "in vivo, Panicum milliacem, Setaria viridis, Echinochloa frumentacea", "conditions": "pre-emergence, 336 h, two weeks after treatment", "description": "as §1, §2, §3, §4"}, "[3]": {"test_system": "Soybeans", "assay": "Field preemergence test, phytotoxic effects on crop", "type": "in vivo, var. Davis", "excerpt": "Test plots of fertilized, light sandy soil containing 0.7% organic matter are sprayed uniformly with aqueous suspensions prepared from emulsifiable concentrates containing 12%, by weight, of the test chemicals diluted to provide dosage rates of the test compounds corresponding to 2.0, 1.0, 0.5, and 0.25 pound per acre (lb/A). The plots are then sown with seeds of the following crop plants: sweet corn, cotton (Coker 413) and soybeans, var. Davis. Seeds of the following weed plants are planted: redroot pigweed, prickly sida, common lambsquarter, goosegrass and giant foxtail.\nThree to four weeks after planting, percent control (plant kill) of the test plants is estimated, from a rating of 0 which denotes no injury to the plant up to 100 which denotes complete destruction. The herbicidal action of the test compounds obtained on the weed species is as follows:\nPhytotoxic effects observed on the crop species is estimated with results as follows: […]"}, "[4]": {"test_system": "Morningglory", "assay": "Example 17 selective herbicidal activity in corn crop, weed kill", "type": "in vivo, Ipomoea sp.", "conditions": "Ipomoea, 3-4 weeks after planting", "excerpt": "(§5) This example illustrates the selective herbicidal activity of two of the presently preferred compounds of this invention against various weed species in a corn crop.\n(§6) Plots of light sandy soil, cleared of all weeds, are uniformly treated with aqueous dispersions prepared from an emulsifiable concentrate containing 2- 4 pounds of active ingredient per gallon. Diluted aqueous dispersions are applied as surface treatments at 2.0, 1.0, 0.5, and 0.25 pound of active ingredient per acre (lb/A).\n(§7) The treated test plots are sown to corn and with seeds of the following weed species:\n(§8) Three to four weeks after planting, the degree of damage to both the corn stands and the weed plants is assessed from a rating of 0% (no injury) to 100% (complete destruction)."}, "[5]": {"test_system": "Goosegrass", "assay": "Example 17 selective herbicidal activity in corn crop, weed kill", "type": "in vivo, Eleusine indica", "conditions": "3-4 weeks after planting", "excerpt": "as §5, §6, §7, §8"}, "[6]": {"test_system": "Barnyardgrass", "assay": "Example 18 preemergence herbicide test in different soils, % control", "type": "in vivo, barnyard-grass", "conditions": "three weeks", "description": "(§9) To further illustrate the herbicidal activity of compounds of this invention in different types of soil as would be encountered in different crop growing localities, a preemergence herbicide test is conducted generally as outlined previously herein. Two light sandy soils are employed containing 0.7% and 1.8% organic matter (O.M.), respectively, along with two loam-type, heavier soils containing either 2.0% or 5-5.5% organic matter (O.M.).\n(§10) The test plots are all sprayed uniformly with formulations of the test compounds providing 2.0, 1.0, 0.5, and 0.25 pound of active chemical per acre (lb/A).\n(§11) Prior to treatment, the soil plots are sown to field corn, soybean, and grain sorghum crops and seeds of barnyard-grass and yellow foxtail.\nThree weeks after planting, the percent control of plant growth is rated from 0% (no injury) to 100% (total destruction)."}, "[7]": {"test_system": "Corn", "assay": "Example 18 phytotoxic effects on crop stands in different soils", "type": "in vivo, field corn", "description": "as §9, §10, §11\n(§12) Three weeks after planting, the percent control of plant growth is rated from 0% (no injury) to 100% (total destruction). The results obtained are as follows:\n(§13) Phytotoxic effects on the crop stands are similarly rated with the following results: […]"}, "[8]": {"test_system": "Sorghum", "assay": "Example 18 phytotoxic effects on crop stands in different soils", "type": "in vivo, grain sorghum", "description": "as §9, §10, §11, §12, §13"}, "[9]": {"conditions": "0.5 lb/A, Heavy Soil 5-5.5% O.M."}, "[10]": {"conditions": "0.5 lb/A, Medium Soil 2.0% O.M."}, "[11]": {"conditions": "1.0 lb/A, Heavy Soil 5-5.5% O.M."}, "[12]": {"conditions": "1.0 lb/A, Medium Soil 2.0% O.M."}, "[13]": {"conditions": "2.0 lb/A, Heavy Soil 5-5.5% O.M."}, "[14]": {"conditions": "2.0 lb/A, Medium Soil 2.0% O.M."}}, "data": [{"smiles": "C#CCN(C(=O)CCl)c1c(C)cccc1CC", "note": "[Example 15, 2-Chloro-2'-methyl-6'-ethyl-N-propargylacetanilide]", "values": [{"measurement": "% Control, Broadleaves", "setting": "[1]; 0.5 lb/A", "result": 0, "unit": "%"}, {"measurement": "% Control, Broadleaves", "setting": "[1]; 1.0 lb/A", "result": 35, "unit": "%"}, {"measurement": "pest or weed control at 69.4927 g/ha", "setting": "[2]; 0.062 lb/A", "result": 0, "unit": "%"}, {"measurement": "pest or weed control at 140.106 g/ha", "setting": "[2]; 0.125 lb/A", "result": 70, "unit": "%"}, {"measurement": "pest or weed control at 280.212 g/ha", "setting": "[2]; 0.25 lb/A", "result": 85, "unit": "%"}, {"measurement": "pest or weed control at 560.425 g/ha", "setting": "[2]; 0.5 lb/A", "result": 98, "unit": "%"}, {"measurement": "pest or weed control at 1120.85 g/ha", "setting": "[2]; 1.0 lb/A", "result": 99, "unit": "%"}, {"measurement": "% Crop Kill, Soybeans", "setting": "[3]; 0.5 lb/A", "result": 0, "unit": "%"}, {"measurement": "% Crop Kill, Soybeans", "setting": "[3]; 1.0 lb/A", "result": 3, "unit": "%"}, {"measurement": "% Crop Kill, Soybeans", "setting": "[3]; 2.0 lb/A", "result": 13, "unit": "%"}, {"measurement": "mortality at 280.212 g/ha", "setting": "[4]; 0.25 lb/A", "result": 0, "unit": "%"}, {"measurement": "mortality at 560.425 g/ha", "setting": "[4]; 0.5 lb/A", "result": 0, "unit": "%"}, {"measurement": "mortality at 1120.85 g/ha", "setting": "[4]; 1.0 lb/A", "result": 0, "unit": "%"}, {"measurement": "mortality at 2241.7 g/ha", "setting": "[4]; 2.0 lb/A", "result": 6, "unit": "%"}, {"measurement": "% Weed Kill, Goosegrass", "setting": "[5]; 0.25 lb/A", "result": 82, "unit": "%"}, {"measurement": "% Weed Kill, Goosegrass", "setting": "[5]; 0.5 lb/A", "result": 100, "unit": "%"}, {"measurement": "% Weed Kill, Goosegrass", "setting": "[5]; 1.0 lb/A", "result": 100, "unit": "%"}, {"measurement": "% Weed Kill, Goosegrass", "setting": "[5]; 2.0 lb/A", "result": 100, "unit": "%"}, {"measurement": "% Control, Barnyardgrass", "setting": "[6]; [9]", "result": 98, "unit": "%"}, {"measurement": "% Control, Barnyardgrass", "setting": "[6]; [10]", "result": 100, "unit": "%"}, {"measurement": "% Control, Barnyardgrass", "setting": "[6]; 0.5 lb/A, Sand 0.7% O.M.", "result": 75, "unit": "%"}, {"measurement": "% Control, Barnyardgrass", "setting": "[6]; 0.5 lb/A, Sand 1.8% O.M.", "result": 50, "unit": "%"}, {"measurement": "% Control, Barnyardgrass", "setting": "[6]; [11]", "result": 100, "unit": "%"}, {"measurement": "% Control, Barnyardgrass", "setting": "[6]; [12]", "result": 100, "unit": "%"}, {"measurement": "% Control, Barnyardgrass", "setting": "[6]; 1.0 lb/A, Sand 0.7% O.M.", "result": 99, "unit": "%"}, {"measurement": "% Control, Barnyardgrass", "setting": "[6]; 1.0 lb/A, Sand 1.8% O.M.", "result": 90, "unit": "%"}, {"measurement": "% Control, Barnyardgrass", "setting": "[6]; [13]", "result": 100, "unit": "%"}, {"measurement": "% Control, Barnyardgrass", "setting": "[6]; [14]", "result": 100, "unit": "%"}, {"measurement": "% Control, Barnyardgrass", "setting": "[6]; 2.0 lb/A, Sand 0.7% O.M.", "result": 99, "unit": "%"}, {"measurement": "% Control, Barnyardgrass", "setting": "[6]; 2.0 lb/A, Sand 1.8% O.M.", "result": 99, "unit": "%"}, {"measurement": "% Phytotoxicity, Corn", "setting": "[7]; [9]", "result": 0, "unit": "%"}, {"measurement": "% Phytotoxicity, Corn", "setting": "[7]; [10]", "result": 0, "unit": "%"}, {"measurement": "% Phytotoxicity, Corn", "setting": "[7]; 0.5 lb/A, Sand 0.7% O.M.", "result": 0, "unit": "%"}, {"measurement": "% Phytotoxicity, Corn", "setting": "[7]; 0.5 lb/A, Sand 1.8% O.M.", "result": 0, "unit": "%"}, {"measurement": "% Phytotoxicity, Corn", "setting": "[7]; [11]", "result": 0, "unit": "%"}, {"measurement": "% Phytotoxicity, Corn", "setting": "[7]; [12]", "result": 10, "unit": "%"}, {"measurement": "% Phytotoxicity, Corn", "setting": "[7]; 1.0 lb/A, Sand 0.7% O.M.", "result": 0, "unit": "%"}, {"measurement": "% Phytotoxicity, Corn", "setting": "[7]; 1.0 lb/A, Sand 1.8% O.M.", "result": 0, "unit": "%"}, {"measurement": "% Phytotoxicity, Corn", "setting": "[7]; [13]", "result": 10, "unit": "%"}, {"measurement": "% Phytotoxicity, Corn", "setting": "[7]; [14]", "result": 55, "unit": "%"}, {"measurement": "% Phytotoxicity, Corn", "setting": "[7]; 2.0 lb/A, Sand 0.7% O.M.", "result": 10, "unit": "%"}, {"measurement": "% Phytotoxicity, Corn", "setting": "[7]; 2.0 lb/A, Sand 1.8% O.M.", "result": 0, "unit": "%"}, {"measurement": "% Phytotoxicity, Sorghum", "setting": "[8]; [9]", "result": 45, "unit": "%"}, {"measurement": "% Phytotoxicity, Sorghum", "setting": "[8]; [10]", "result": 60, "unit": "%"}, {"measurement": "% Phytotoxicity, Sorghum", "setting": "[8]; 0.5 lb/A, Sand 0.7% O.M.", "result": 0, "unit": "%"}, {"measurement": "% Phytotoxicity, Sorghum", "setting": "[8]; 0.5 lb/A, Sand 1.8% O.M.", "result": 20, "unit": "%"}, {"measurement": "% Phytotoxicity, Sorghum", "setting": "[8]; [11]", "result": 90, "unit": "%"}, {"measurement": "% Phytotoxicity, Sorghum", "setting": "[8]; [12]", "result": 100, "unit": "%"}, {"measurement": "% Phytotoxicity, Sorghum", "setting": "[8]; 1.0 lb/A, Sand 0.7% O.M.", "result": 15, "unit": "%"}, {"measurement": "% Phytotoxicity, Sorghum", "setting": "[8]; 1.0 lb/A, Sand 1.8% O.M.", "result": 65, "unit": "%"}, {"measurement": "% Phytotoxicity, Sorghum", "setting": "[8]; [13]", "result": 99, "unit": "%"}, {"measurement": "% Phytotoxicity, Sorghum", "setting": "[8]; [14]", "result": 100, "unit": "%"}, {"measurement": "% Phytotoxicity, Sorghum", "setting": "[8]; 2.0 lb/A, Sand 0.7% O.M.", "result": 50, "unit": "%"}, {"measurement": "% Phytotoxicity, Sorghum", "setting": "[8]; 2.0 lb/A, Sand 1.8% O.M.", "result": 90, "unit": "%"}]}]}
